The results in this text go back to ChEMBL document CHEMBL1144951, “Synthesis of N-alkylated derivatives of imidazole as antibacterial agents” (2003).

Holding throughout (format): functional
The test system of test [1] is Escherichia coli. The test can be described thus: Minimum inhibitory concentration (MIC) against Escherichia coli.
For test [2], the system named is Staphylococcus aureus. Description: Minimum inhibitory concentration (MIC) against Staphylococcus aureus.
Test [3] relates to Escherichia coli. Description: Minimum bacterial concentration (MBC) against Escherichia coli.
For test [4], the system named is Staphylococcus aureus. The test can be described thus: Minimum bacterial concentration (MBC) against Staphylococcus aureus.
Test [5] concerns Pseudomonas aeruginosa. The test can be described thus: Minimum bacterial concentration (MBC) against Pseudomonas aeruginosa.
In test [6] the test system is Pseudomonas aeruginosa. Description: Minimum inhibitory concentration (MIC) against Pseudomonas aeruginosa.

≈ marks a conversion by molar mass, not a printed value.

`CCCCn1cc([N+](=O)[O-])nc1C`: the minimal inhibitory concentration (MIC) (usually the lowest concentration that inhibits growth of the organism) amounted to 18 µg/mL (≈ 98.2 µM) in test [1] and 17 µg/mL (≈ 92.8 µM) in test [2]. Besides, the MBC – broadly, the smallest concentration meeting the test's criterion for killing – worked out at 37 µg/mL (≈ 202 µM) in test [3] and 33 µg/mL (≈ 180 µM) in test [4].

For the molecule `CCCCCCCCn1ccnc1`, the MIC in test [1] turned out to be 45 µg/mL (≈ 250 µM); in test [2], 27 µg/mL (≈ 150 µM); in test [6], 54 µg/mL (≈ 300 µM). The MBC was 108 µg/mL (≈ 599 µM) in test [5], 90 µg/mL (≈ 499 µM) in test [3] and 45 µg/mL (≈ 250 µM) in test [4].

As for `CCCCCCCCn1cc([N+](=O)[O-])nc1C`, the MIC stood at 31 µg/mL (≈ 130 µM) in test [1] and 24 µg/mL (≈ 100 µM) in test [2]. In addition, the MBC worked out at 60 µg/mL (≈ 251 µM) in test [3] and 48 µg/mL (≈ 201 µM) in test [4].

For the molecule `CCCCCCCCCn1ccnc1`, the MIC in test [1] stood at 19 µg/mL (≈ 97.8 µM); in test [2], 10 µg/mL (≈ 51.5 µM); in test [6] it was 39 µg/mL (≈ 201 µM). In addition, the MBC in test [5] is 78 µg/mL (≈ 401 µM); in test [3], 39 µg/mL (≈ 201 µM); in test [4] it was 19 µg/mL (≈ 97.8 µM).

`CCCn1ccnc1`: the values for the MIC in test [1], in test [2] and in test [6] were 110 µg/mL (≈ 999 µM), 44 µg/mL (≈ 399 µM) and 550 µg/mL (≈ 4990 µM), respectively. For the same molecule, the MBC stood at 1100 µg/mL (≈ 9990 µM) in test [5], 220 µg/mL (≈ 2000 µM) in test [3] and 198 µg/mL (≈ 1800 µM) in test [4].

For `CCCCCCn1ccnc1C`, the MIC in test [1] and in test [2] was 25 µg/mL (≈ 150 µM) throughout. Besides, the MBC in test [3] and in test [4] was 50 µg/mL (≈ 301 µM) throughout.

Regarding `CCCCCCCCCCCn1ccnc1`, the MIC in test [1] was determined as 1110 µg/mL (≈ 4990 µM); in test [2], 1110 µg/mL (≈ 4990 µM); in test [6], 2220 µg/mL (≈ 9980 µM). Besides, the MBC was determined as 4440 µg/mL (≈ 20000 µM) in test [5], 2220 µg/mL (≈ 9980 µM) in test [3] and 2220 µg/mL (≈ 9980 µM) in test [4].

Turning to `CCCCCCn1ccnc1`, the MIC came out at 91 µg/mL (≈ 598 µM) in test [1], 46 µg/mL (≈ 302 µM) in test [2] and 122 µg/mL (≈ 801 µM) in test [6]. The MBC in test [5] stood at 243 µg/mL (≈ 1600 µM); in test [3] it was 182 µg/mL (≈ 1200 µM); in test [4] it was 91 µg/mL (≈ 598 µM).

Turning to `CCCCCn1ccnc1`, the results for the MIC in test [1], in test [2] and in test [6] were 97 µg/mL (≈ 702 µM), 69 µg/mL (≈ 499 µM) and 138 µg/mL (≈ 998 µM), respectively. Moreover, the MBC in test [5] is 276 µg/mL (≈ 2000 µM); in test [3] it was 193 µg/mL (≈ 1400 µM); in test [4], 138 µg/mL (≈ 998 µM).

On to `CCCCCCCCCCCCCn1ccnc1`, for which the MIC in test [1] is 18800 µg/mL (≈ 74900 µM); in test [2] it was 17500 µg/mL (≈ 69900 µM); in test [6] it was 20000 µg/mL (≈ 79900 µM). For the same molecule, the minimum bactericidal concentration (MBC) in test [5] was determined as 21200 µg/mL (≈ 84900 µM); in test [3], 20000 µg/mL (≈ 79900 µM); in test [4], 18800 µg/mL (≈ 74900 µM).

On to `CCCCn1ccnc1`, for which the results for the MIC in test [1], in test [2] and in test [6] were 99 µg/mL (≈ 797 µM), 87 µg/mL (≈ 701 µM) and 248 µg/mL (≈ 2000 µM), respectively. Also, the MBC in test [5] stood at 496 µg/mL (≈ 3990 µM); in test [3], 198 µg/mL (≈ 1590 µM); in test [4], 174 µg/mL (≈ 1400 µM).

As to GENTAMICIN, the MIC in test [1] was 64 µg/mL; in test [2], 2 µg/mL; in test [6], 8 µg/mL. Further, the MBC in test [5] worked out at 12 µg/mL; in test [3], 128 µg/mL; in test [4], 4 µg/mL.

Consider `CCCCCCCCCCCCn1ccnc1`, for which the MIC in test [1] stood at 14200 µg/mL (≈ 59900 µM); in test [2], 14200 µg/mL (≈ 59900 µM); in test [6], 16500 µg/mL (≈ 69900 µM). Moreover, the MBC in test [5] was 17700 µg/mL (≈ 74900 µM); in test [3], 15300 µg/mL (≈ 64900 µM); in test [4], 15300 µg/mL (≈ 64900 µM).

`CCCCCCCn1ccnc1`: the MIC in test [1] is 50 µg/mL (≈ 301 µM); in test [2], 33 µg/mL (≈ 198 µM); in test [6], 83 µg/mL (≈ 499 µM). The MBC in test [5] amounted to 166 µg/mL (≈ 998 µM); in test [3], 100 µg/mL (≈ 601 µM); in test [4], 66 µg/mL (≈ 397 µM).

With `CCCCCCCCCCn1ccnc1`, the values for the MIC in test [1], in test [2] and in test [6] were 208 µg/mL (≈ 998 µM), 208 µg/mL (≈ 998 µM) and 416 µg/mL (≈ 2000 µM), respectively. Besides, the MBC in test [5] is 832 µg/mL (≈ 3990 µM); in test [3], 416 µg/mL (≈ 2000 µM); in test [4] it was 416 µg/mL (≈ 2000 µM).

With `CCCCCCCCCCCCn1ccnc1C`, the MIC in test [1] and in test [2] was 17500 µg/mL (≈ 69900 µM) in each case. Moreover, the MBC in test [3] and in test [4] was 18800 µg/mL (≈ 74900 µM) in each case.

For the molecule `CCn1ccnc1`, the minimum inhibitory concentration (MIC) in test [1] is 480 µg/mL (≈ 4990 µM); in test [2], 480 µg/mL (≈ 4990 µM); in test [6], 960 µg/mL (≈ 9990 µM). Further, the MBC in test [5] is 1920 µg/mL (≈ 20000 µM); in test [3] it was 960 µg/mL (≈ 9990 µM); in test [4], 960 µg/mL (≈ 9990 µM).

On to `CCCCCCCCCCCCCCn1ccnc1`, for which the MIC in test [1] amounted to 21100 µg/mL (≈ 79900 µM); in test [2], 19800 µg/mL (≈ 74900 µM); in test [6] it was 23800 µg/mL (≈ 89800 µM). The MBC in test [5] turned out to be 25100 µg/mL (≈ 94800 µM); in test [3], 22400 µg/mL (≈ 84900 µM); in test [4] it was 21100 µg/mL (≈ 79900 µM).
